Patent publication US20260151467A1, “METHOD FOR TREATING CANCER” (THE CHILDREN'S MEDICAL CENTER CORPORATION, priority 2018, published 2026)

Assays:
CCRF-CEM cells = assay: Viable cell counts (trypan blue) of CCRF-CEM cells treated with asparaginase and other agents; format: cell-based, human; conditions: for effect on Wnt-induced sensitization to asparaginase: shRNA-transduced cells, rapamycin 1 nM, RAD001 10 nM, AZD2014 10 nM; for sensitization to asparaginase by isoform-selective GSK3 inhibitor: 8 days (FIG. 4a)
Method: (§1) Cells (25,000 per well) were seeded in 100 μl of complete growth medium in 96-well plates and incubated with chemotherapeutic agents or vehicle. T-ALL cells were split every 48 hours in a 1:5 ratio. Briefly, 20 μl of cells were mixed with 80 μl fresh culture medium, supplemented with vehicle or chemotherapeutic drugs at the indicated doses. AML cells were split every 72 hours as described above. Cell viability was assessed by counting viable cells based on trypan blue vital dye staining (Invitrogen), according to the manufacturer's instructions. Chemotherapeutic drugs included: PEG-asparaginase (“oncaspar”, Shire, Lexington, MA), dexamethasone (Sigma-Aldrich), vincristine (Selleckchem, Houston, TX), doxorubicin (Sigma-Aldrich), 6-mercaptopurine (Abcam, Cambridge, UK), CHIR99021 (Selleckchem), bortezomib (Selleckchem), rapamycin (Selleckchem), RAD001 (Selleckchem), AZD2014 (Selleckchem), and Wnt3A (R&D systems, Minneapolis, MN). BRD0705 and […] were synthesized as described^15. Caspase 3/7 activity was assessed using the Caspase Glo 3/7 Assay (Promega, Madison, WI) according to the manufacturer's instructions.

HCT-15 cells = assay: Chemotherapy response of colon cancer cell lines (trypan blue counts), HCT-15; format: cell-based, human; conditions: 10 days; Rspondin3 75 ng/ml and Wnt3a 100 ng/ml; inhibitors 1 μM
Method: (§2) Cells (100,000 per well) were seeded in […] of complete growth medium in 12-well plates and incubated with chemotherapeutic agents or vehicle. Cells were split every 48 hours and cell viability was assessed by counting viable cells based on trypan blue vital dye staining (Invitrogen), according to the manufacturer's instructions. Chemotherapeutic drugs included: asparaginase (pegaspargase, Shire, Lexington, MA), CHIR99021 (Selleckchem), recombinant human Wnt3A protein (R&D systems, Minneapolis, MN) and recombinant human R-Spondin 3 protein (R&D systems, Minneapolis, MN). BRD0705 and BRD3731 were synthesized as described (Wagner et al., 2018). Caspase 3/7 activity was assessed using the Caspase Glo 3/7 Assay (Promega, Madison, WI) according to the manufacturer's instructions.

Apc-deficient organoids = assay: Chemotherapy response in mouse intestinal organoids, Apc-deficient; format: cell-based; conditions: asparaginase 100 U/L, BRD0705 1 μM or both, 10 days
Method: For assessment of chemotherapy response in mouse intestinal organoids, Apc-deficient and Rspo3 fusion organoids were cultured in basal organoid medium (medium not containing murine Wnt3A, murine Noggin and human R-spondin1 protein). A full 0.95 cm2 well of organoids was split into new wells, aiming to obtain approximately 25 organoids per well. Organoids were split according to previously published protocols (O'Rourke et al., 2016). Matrigel and basal organoid culture medium were supplemented with vehicle or chemotherapeutic agents, and split every 48 hours. After 10 days in culture, total organoid numbers per wells were counted by light microscopy. Microscopy was performed using an 100× objective on an Axio Imager A1 microscope (Zeiss, Oberkochen, Germany), with images captured using a CV-A10 digital camera (Jai, Yokohama, Japan) and Cytovision software (Leica Biosystems, Wetzlar, Germany).
Organoids touching the edge of a well were excluded from counting. Images were taken from a representative of three independent experiments and analyzed with ImageJ Software (Schneider et al., 2012).

[1] = system: asparaginase-resistant T-ALL patient-derived xenograft; assay: T-ALL patient-derived xenograft in NRG mice, survival; format: in vivo, mouse
Method: Mice were exposed to a sub-lethal dose of radiation (4.5 Gy) and subsequently injected with human leukemia cells. All injections were performed by tail vein injection. Blood collections were performed to monitor leukemia onset in mice injected with leukemic cells, which was assessed by staining for human CD45 expression using anti-human CD45-PE-Cy7 (1:400, BD #560915) antibody staining. As soon as leukemia engraftment was confirmed based on ≥5% human leukemia cells in the peripheral blood, treatment of mice was begun. Asparaginase (1,000 U/kg) or PBS were injected by tail vein injection as a single dose on day 1 of drug treatment, and BRD0705 (15 mg/kg) or vehicle were given every 12 hours for 12 days by oral gavage. Vehicle was formulated as previously described.^15 Mice were anesthetized with isoflurane (Patterson Veterinary, Greeley, CO) prior to gavage. After start of treatment, body weight was monitored every third day. To assess bilirubin levels, mandibular blood vein collection was performed, and bilirubin levels were measured in the Boston Children's Hospital clinical laboratory. The primary endpoint of this experiment was survival. Mice were euthanized as soon as they developed weight loss greater than 15% or signs/symptoms of progressing disease. Post-mortem analysis of leukemic burden was performed by extracting bone marrow cells, which were filtered through a […] mesh filter and red blood cells were lysed using the BD Biosciences Red Blood Cell Lysis reagent (BD #555899). Isolated bone marrow cells were stained for assessment of leukemic burden using following antibodies from BD Biosciences: Anti-human CD4-APC-Cy7 (1:100, BD #561839) and anti-human CD8-PerCP-Cy5.5 (1:100, BD #560662).

SW-480 cells = assay: Chemotherapy response of colon cancer cell lines (trypan blue counts), SW-480; format: cell-based, human; conditions: 10 days; Rspondin3 75 ng/ml and Wnt3a 100 ng/ml; inhibitors 1 μM
Method: as §2

[2] = system: APC-mutant CRC patient-derived xenograft; assay: APC-mutant human CRC patient-derived xenograft in nude mice; format: in vivo, mouse; conditions: asparaginase 1000 U/kg×1 dose; BRD0705 every 12 hours×21 days
Method: For implantation of APC mutant human CRC PDX, patient tumor material was collected in PBS and kept on wet ice for engraftment within 24 h after resection. Upon arrival, necrotic and supporting tissues were carefully removed using a surgical blade. Approximately 1 mm×1 mm tissue fragments were implanted subcutaneously into the flank region of male nude mice, as described (Bullman et al., 2017). For injection of intestinal organoids (Rspo3; p53; Kras, or Apc; p53; Kras), per mouse one full […] well of organoids was injected subcutaneously.
As soon as tumors reached a volume of approximately 150 mm3, treatment of mice was begun. […] Vehicle was formulated as previously described (Wagner et al., 2018).
After start of treatment, body weight and tumor size were evaluated every other day. Tumor size was assessed by caliper measurements and the approximate volume of the mass was calculated using the formula (l×w×w)×(π/6), where 1 is the major tumor axis and w is the minor tumor axis.

CCD-841 cells = assay: Viable cell counts of normal colonic epithelium cells; format: cell-based, human; conditions: CHIR99021 1 μM, 10 days
Method: as §2

[3] = system: T-ALL, acute myeloid leukemia and hypodiploid B-ALL cell lines; assay: Asparaginase sensitization across a panel of treatment-resistant acute leukemia cell lines (trypan blue counts); format: cell-based, human; conditions: CHIR99021 1 μM, 8 days
Method: as §1

[4] = system: normal human CD34+ hematopoietic progenitors; assay: Viable cell counts of normal CD34+ hematopoietic progenitors; format: cell-based; conditions: CHIR99021 1 μM, day 4
Source text: Cell lines and cell culture. 293T cells, T-ALL cell lines, AML cell lines and B-ALL cell lines were obtained from ATCC (Manassas, VA, USA), DSMZ (Braunschweig, Germany), the A. Thomas Look laboratory (Boston, MA, USA) or Alex Kentsis laboratory (New York, NY, USA) and cultured in DMEM, RPMI 1640 or MEM alpha (Thermo Fisher Scientific) with 10% or 20% fetal bovine serum (FBS, Sigma-Aldrich, Saint Louis, MO) or TET system approved FBS (Clontech, Mountain View, CA) and 1% penicillin/streptomycin (Thermo Fisher Scientific) at 37° C., 5% CO2. Human CD34+ progenitor cells from mobilized peripheral blood of healthy donors were obtained from Fred Hutchinson Cancer Research Center (Seattle, WA, USA) (e.g., found on the world wide web at sharedresources.fredhutch.org/products/cd34-cells). […]
Cells (25,000 per well) were seeded in 100 μl of complete growth medium in 96-well plates and incubated with chemotherapeutic agents or vehicle. […] Cell viability was assessed by counting viable cells based on trypan blue vital dye staining (Invitrogen), according to the manufacturer's instructions. […] Caspase 3/7 activity was assessed using the Caspase Glo 3/7 Assay (Promega, Madison, WI) according to the manufacturer's instructions.

CNC(=O)c1cccc(-c2ccc3c(N4CCOC[C@@H]4C)nc(N4CCOC[C@@H]4C)nc3n2)c1 [AZD2014]
effect on Wnt-induced sensitization to asparaginase (CCRF-CEM cells; 8 days): had no effect

CC[C@@]1(c2ccccc2)C2=C(CC(C)(C)CC2=O)Nc2[nH]ncc21 [BRD0705]
sensitization to asparaginase (HCT-15 cells): sensitized | sensitization to asparaginase by isoform-selective GSK3 inhibitor (CCRF-CEM cells): effectively sensitizes | toxicity to organoids (viable organoid count) (Apc-deficient organoids): little toxicity | difference in survival between vehicle and monotherapy groups (log-rank) ([1]; FIG. 4D, Kaplan-Meier): not significant | efficacy against xenograft (survival) ([1]; asparaginase 1,000 U/kg i.v. single dose, BRD0705 15 mg/kg oral gavage every 12 hours for 12 days): highly resistant | sensitization to asparaginase (SW-480 cells): sensitized | activity on tumor growth [2]: no activity

CC(C)(C)Cc1[nH]nc2c1[C@](C)(c1ccccc1)C1=C(CC(C)(C)CC1=O)N2 [BRD3731]
sensitization to asparaginase (HCT-15 cells): had little effect | sensitization to asparaginase by isoform-selective GSK3 inhibitor (CCRF-CEM cells): only modest effects | sensitization to asparaginase (SW-480 cells): had little effect

Cc1c[nH]c(-c2cnc(NCCNc3ccc(C#N)cn3)nc2-c2ccc(Cl)cc2Cl)n1 [CHIR99021]
sensitization to asparaginase (HCT-15 cells): sufficient to induce asparaginase sensitization | sensitization to other antileukemic drugs (CCRF-CEM cells; CHIR99021 1 μM, 8 days, vincristine, 6-mercaptopurine, dexamethasone, doxorubicin): Nor did it sensitize leukemic cells to other commonly used antileukemic drugs | toxicity of GSK3 inhibition combined with asparaginase to normal colonic cells (CCD-841 cells): little toxicity | asparaginase sensitization [3]: induced significant asparaginase sensitization | sensitization to asparaginase (SW-480 cells): sufficient to induce asparaginase sensitization | toxicity of asparaginase to normal progenitors with GSK3 inhibitor [4]: did not increase the toxicity of asparaginase

CO[C@H]1C[C@@H]2CC[C@@H](C)[C@@](O)(O2)C(=O)C(=O)N2CCCC[C@H]2C(=O)O[C@H]([C@H](C)C[C@@H]2CC[C@@H](OCCO)[C@H](OC)C2)CC(=O)[C@H](C)/C=C(\C)[C@@H](O)[C@@H](OC)C(=O)[C@H](C)C[C@H](C)/C=C/C=C/C=C/1C [RAD001]
effect on Wnt-induced sensitization to asparaginase (CCRF-CEM cells; 8 days): had no effect

CC(C)C[C@H](NC(=O)[C@H](Cc1ccccc1)NC(=O)c1cnccn1)B(O)O [bortezomib]
single-agent toxicity (CCRF-CEM cells; 10 nM dose): lacked single-agent toxicity | sensitization to asparaginase by proteasome inhibition (CCRF-CEM cells; bortezomib 10 nM, 8 days): phenocopied Wnt-induced sensitization to asparaginase | toxicity (viability), dose range (CCRF-CEM cells; indicated doses, 48 hours (FIG. 10)): highly toxic at intermediate doses

B1: Wnt3A: Wnt ligand, recombinant protein (R&D systems) (protein, UniProt P56704 19-352, looked up)
Protein Wnt-3a: SYPIWWSLAVGPQYSSLGSQPILCASIPGLVPKQLRFCRNYVEIMPSVAEGIKIGIQECQHQFRGRRWNCTTVHDSLAIFGPVLDKATRESAFVHAIASAGVAFAVTRSCAEGTAAICGCSSRHQGSPGKGWKWGGCSEDIEFGGMVSREFADARENRPDARSAMNRHNNEAGRQAIASHMHLKCKCHGLSGSCEVKTCWWSQPDFRAIGDFLKDKYDSASEMVVEKHRESRGWVETLRPRYTYFKVPTERDLVYYEASPNFCEPNPETGSFGTRDRTCNVSSHGIDGCDLLCCGRGHNARAERRREKCRCVFHWCCYVSCQECTRVYDVHTCK
sensitization to asparaginase by Wnt ligand (CCRF-CEM cells; 100 ng/ml Wnt3A, 8 days): phenocopied
